Where a SMILES comes first, the peptide text is derived from it. Bridges are numbered along the chain shown (N, C = ends). [ ]: non-standard residue; d: D form. The star is where a group is joined. DOTA = O=C(O)CN1CCN(CC(=O)O)CCN(CC(=O)*)CCN(CC(=O)O)CC1
Experiments:
hSST2R [1] = molecular target: T1, hSST2R (Homo sapiens, UniProt P30874); experiment: Immunofluorescence microscopy-based internalization assay in HEK293-hSST2R cells; assay type: cell-based; conditions: for ligand-induced hSST2R internalization (agonism): 30 min at 37 °C
T1 construct: expressed in transfected cells
Method: Figure 3 Agonist stimulated hSST2R-internalization in HEK293-hSST2R cells determined by immunofluorescence microscopy.
An immunofluorescence microscopy-based internalization assay for hSST2R was performed in HEK293-hSST2R cells, grown on poly-DLys (20 μg/mL) (Sigma-Aldrich, St. Louis, MO, USA) coated 35-mm four-well plates (Cellstar, Greiner Bio-One GmbH, Frickenhausen, Germany). […] HEK293-hSST2R cells treated with vehicle alone were used as a negative control. The cells were then rinsed twice with PS (100 mM phosphate buffer containing 0.15 M sucrose), fixed and permeabilized for 7 min with cold methanol (−20 °C), rinsed twice with PS, and then blocked for 60 min at room temperature with PS containing 0.1% BSA. Next, cells were incubated for 60 min at room temperature with the hSST2R-specific primary antibody R2-88 (provided by Dr. A. Schönbrunn, Houston, TX, USA) diluted 1:1000 in PS and washed 3 × 5 min with PS containing 0.1% BSA. The cells were incubated for 60 min at room temperature in the dark with the secondary antibody Alexa Fluor 488 goat anti-rabbit IgG (H+ L) (Molecular Probes, Inc., Eugene, OR, USA) diluted in PS (1:600), washed 3 × 5 min with PS containing 0.1% BSA, embedded with PS/glycerol 1:1, and covered with a glass cover slip. The cells were imaged using a Leica DM RB immunofluorescence microscope (Leica, Deerfield, IL, USA) and an Olympus DP10 camera (Olympus Corporation, Shinjuku, Tokyo, Japan).

hSST1R = molecular target: T2, hSST1R (Homo sapiens, UniProt P30872); experiment: Receptor autoradiography competition binding vs [125I]I-[LTT]SS28
T2 construct: expressed in transfected cells; host or cells: CHO cells, gift of Drs; T. Reisine and G. Singh
Method: (§1) Cell membrane pellets were prepared from CHO-hSST1R cells, CCL39-hSST2R, CCL39-hSST3R, and CCL39-hSST4R cells, and HEK293-hSST2R cells and stored at −80 °C. Receptor autoradiography was performed on 20-μm-thick cryostat (Microm HM 500, Walldorf, Germany) sections of the membrane pellets mounted on microscope slides, and then stored at −20 °C, as previously described. […] The incubated sections were washed twice for 5 min in cold 170 mmol/L Tris-HCl (pH 8.2) containing 0.25% BSA. After a brief dip in 170 mmol/L Tris-HCl (pH 8.2), the sections were dried quickly and exposed for 1 week to Kodak BioMax MR film (Rochester, NY, USA). IC50 values were calculated after quantification of the data using a computer-assisted image processing system as described previously. Tissue standards (Autoradiographic [^125I] and/or [^14C] microscales, GE Healthcare; Little Chalfont, UK) that contain known amounts of isotope, cross-calibrated to tissue-equivalent ligand concentrations, were used for quantification.

hSST2R [2] = molecular target: T1, hSST2R; experiment: as above
Method: as §1

hSST3R = molecular target: T3, hSST3R (Homo sapiens, UniProt P32745); experiment: as above
T3 construct: expressed in transfected cells; host or cells: CCL39 cells, gift of Dr. D. Hoyer (Novartis Pharma)
Method: as §1

hSST5R = molecular target: T4, hSST5R (Homo sapiens, UniProt P35346); experiment: as above
T4 construct: expressed in transfected cells

[3] = mice, blood collected 5 min pi, radio-HPLC
Method: At 5 min pi blood (~1mL) was collected from the heart of mice in a prechilled insulin syringe and swiftly placed in an ice-cold polypropylene tube containing EDTA on ice. Blood samples were centrifuged at 2000× g at 4 °C for 10 min. […] The mixture was centrifuged for 10 min at 15,000× g at 4 °C. […] An RP18 Symmetry Shield cartridge column (5 μm, 3.9 mm × 20 mm, Waters, Vienna, Austria) was eluted at a 1 mL/min flow rate with the following gradient: 100%A/0%B to 60%A/40%B in 40 min, whereby A = 0.1% aqueous TFA and B = MeCN (system 3).

T3 sequence (P32745 whole entry): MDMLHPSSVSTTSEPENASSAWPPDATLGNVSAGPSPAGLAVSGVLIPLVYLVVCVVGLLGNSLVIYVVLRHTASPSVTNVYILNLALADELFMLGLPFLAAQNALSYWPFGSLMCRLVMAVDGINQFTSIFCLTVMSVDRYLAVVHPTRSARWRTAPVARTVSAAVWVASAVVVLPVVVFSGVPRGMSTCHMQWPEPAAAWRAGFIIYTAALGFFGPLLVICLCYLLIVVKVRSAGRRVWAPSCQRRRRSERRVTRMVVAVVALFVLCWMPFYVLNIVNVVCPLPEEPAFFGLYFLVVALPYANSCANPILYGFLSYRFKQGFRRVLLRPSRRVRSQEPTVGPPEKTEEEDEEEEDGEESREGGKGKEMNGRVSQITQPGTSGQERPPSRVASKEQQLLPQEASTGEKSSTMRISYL
T4 sequence (P35346 whole entry): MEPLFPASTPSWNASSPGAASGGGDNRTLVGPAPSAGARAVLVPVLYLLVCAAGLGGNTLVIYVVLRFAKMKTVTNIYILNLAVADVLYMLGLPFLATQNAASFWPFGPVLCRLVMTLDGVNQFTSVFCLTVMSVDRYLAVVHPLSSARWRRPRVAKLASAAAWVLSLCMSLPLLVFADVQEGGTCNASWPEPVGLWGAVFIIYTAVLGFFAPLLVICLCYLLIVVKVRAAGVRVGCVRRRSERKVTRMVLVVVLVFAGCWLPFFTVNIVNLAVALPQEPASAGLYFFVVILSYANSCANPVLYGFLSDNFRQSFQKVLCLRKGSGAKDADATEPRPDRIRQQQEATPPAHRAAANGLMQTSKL
T1 sequence (P30874 whole entry): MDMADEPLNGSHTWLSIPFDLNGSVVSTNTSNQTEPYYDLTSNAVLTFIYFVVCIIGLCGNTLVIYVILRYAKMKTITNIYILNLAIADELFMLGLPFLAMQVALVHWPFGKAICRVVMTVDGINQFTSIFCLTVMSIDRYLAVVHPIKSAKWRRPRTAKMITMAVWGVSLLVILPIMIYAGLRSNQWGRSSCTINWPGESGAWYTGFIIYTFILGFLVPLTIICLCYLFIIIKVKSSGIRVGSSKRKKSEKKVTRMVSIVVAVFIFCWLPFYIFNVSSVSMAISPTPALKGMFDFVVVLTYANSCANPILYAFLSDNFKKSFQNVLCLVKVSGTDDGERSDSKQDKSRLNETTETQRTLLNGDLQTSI
T2 sequence (P30872 whole entry): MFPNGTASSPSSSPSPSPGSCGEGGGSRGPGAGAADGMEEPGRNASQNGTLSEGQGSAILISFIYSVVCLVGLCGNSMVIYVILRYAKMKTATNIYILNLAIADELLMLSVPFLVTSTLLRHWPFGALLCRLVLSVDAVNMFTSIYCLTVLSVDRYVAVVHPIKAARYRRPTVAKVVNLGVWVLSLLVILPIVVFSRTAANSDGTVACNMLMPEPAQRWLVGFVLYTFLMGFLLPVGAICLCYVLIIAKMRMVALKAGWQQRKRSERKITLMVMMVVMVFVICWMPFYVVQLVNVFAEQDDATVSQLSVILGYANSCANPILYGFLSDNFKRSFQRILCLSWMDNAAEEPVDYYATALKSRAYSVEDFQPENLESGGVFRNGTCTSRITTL

Compound	ligand-induced hSST2R internalization (agonism) (hSST2R [1]; 1 µM)	IC50 (hSST1R) [nM]	drop in binding affinity for hSST1R compared with native hormone (hSST1R; vs SS14) [fold]	IC50 (hSST2R [2]) [nM]	lower affinity for hSST2R compared with AT2S (hSST2R [2]; vs AT2S) [fold]	drop in binding affinity for hSST2R compared with native hormone (hSST2R [2]; vs SS14) [fold]	IC50 (hSST3R) [nM]	lower affinity for hSST3R compared with AT2S (hSST3R; vs AT2S)	drop in binding affinity for hSST3R compared with native hormone (hSST3R; vs SS14)	IC50 (hSST5R) [nM]	lower affinity for hSST5R compared with AT2S (hSST5R; vs AT2S) [fold]	drop in binding affinity for hSST5R compared with native hormone (hSST5R; vs SS14) [fold]	% intact radioligand in peripheral blood [3] [%]	prevention of SS14-induced hSST2R internalization (antagonism) (hSST2R [1]; 10 µM test peptide + 10 nM SS14, 30 min at 37 °C)	ligand-induced hSST2R internalization (agonism) (hSST2R [1]; 10 µM)
C[C@H](NC(=O)CN1CCN(CC(=O)O)CCN(CC(=O)O)CCN(CC(=O)O)CC1)C(=O)NCC(=O)N[C@H]1CSSC[C@@H](C(=O)O)NC(=O)[C@H](CO)NC(=O)[C@@H]2CSSC[C@H](NC(=O)[C@H](CCCCN)NC1=O)C(=O)N[C@@H](Cc1ccccc1)C(=O)N[C@@H](Cc1ccccc1)C(=O)N[C@H](Cc1c[nH]c3ccccc13)C(=O)N[C@@H](CCCCN)C(=O)N[C@@H]([C@@H](C)O)C(=O)N[C@@H](Cc1ccccc1)C(=O)N2 [AT6S, DOTA-Ala^1-Gly^2-c[Cys^3-Lys^4-c[Cys^5-Phe^6-Phe^7-DTrp^8-Lys^9-Thr^10-Phe^11-Cys^12]-Ser^13-Cys^14]] ({DOTA}-AGCKCFF[dW]KTFCSC-OH; disulfide 3-14, 5-12)	behaved as a potent agonist	12 ± 3.3	< 6	6.3 ± 0.6	< 4	9	9.7 ± 3.6	≈ 4 fold	≈ 3 fold	26 ± 7	< 2	< 6			
C[C@H](NC(=O)CN1CCN(CC(=O)O)CCN(CC(=O)O)CCN(CC(=O)O)CC1)C(=O)NCC(=O)N[C@H]1CSSC[C@@H](C(=O)O)NC(=O)[C@H](CO)NC(=O)[C@H]([C@@H](C)O)NC(=O)[C@@H]2CSSC[C@H](NC(=O)[C@H](CC(N)=O)NC(=O)[C@H](CCCCN)NC1=O)C(=O)N[C@@H](Cc1ccccc1)C(=O)N[C@H](Cc1c[nH]c3ccccc13)C(=O)N[C@@H](CCCCN)C(=O)N[C@@H]([C@@H](C)O)C(=O)N2 [[^111In]In-AT5S, metal not drawn] ({DOTA}-AGCKNCF[dW]KTCTSC-OH; disulfide 3-14, 6-11)													> 96		
C[C@H](NC(=O)CN1CCN(CC(=O)O)CCN(CC(=O)O)CCN(CC(=O)O)CC1)C(=O)NCC(=O)N[C@H]1CSSC[C@@H](C(=O)O)NC(=O)[C@H](CO)NC(=O)[C@H]([C@@H](C)O)NC(=O)[C@@H]2CSSC[C@H](NC(=O)[C@H](CC(N)=O)NC(=O)[C@H](CCCCN)NC1=O)C(=O)N[C@@H](Cc1ccccc1)C(=O)N[C@H](Cc1c[nH]c3ccccc13)C(=O)N[C@@H](CCCCN)C(=O)N[C@@H]([C@@H](C)O)C(=O)N2 [AT5S, DOTA-Ala^1-Gly^2-c[Cys^3-Lys^4-Asn^5-c[Cys^6-Phe^7-DTrp^8-Lys^9-Thr^10-Cys^11]-Thr^12-Ser^13-Cys^14]] ({DOTA}-AGCKNCF[dW]KTCTSC-OH; disulfide 3-14, 6-11)	failed to trigger the hSST2R internalization	> 1000		616 ± 148			> 1000			> 1000				failed to prevent the hSST2R internalization	failed to trigger the hSST2R internalization

— PMC10856354 (International Journal of Molecular Sciences, 2024)
